Assay results from BindingDB's records for doi:10.1021/jm0704898 (Georgetown University Medical Center, 2007).

Assays:
Prothrombin = Prothrombin (Bos taurus, UniProt P00735); experiment: Enzyme Inhibition Assay; details: pH 8.5; 22 °C
Experimental: (§1) The enzyme reaction was initiated by adding fluorescence peptide substrate to reaction mixture containing enzyme and test compounds. […] Hydrolysis rates were recorded in presence of six to seven different concentrations of inhibitor.

[1] = target: T1, Suppressor of tumorigenicity 14 protein (Homo sapiens, UniProt Q9Y5Y6); experiment: Enzyme Inhibition Assay; details: pH 8.5; 22 °C
T1 sequence (Q9Y5Y6 whole entry): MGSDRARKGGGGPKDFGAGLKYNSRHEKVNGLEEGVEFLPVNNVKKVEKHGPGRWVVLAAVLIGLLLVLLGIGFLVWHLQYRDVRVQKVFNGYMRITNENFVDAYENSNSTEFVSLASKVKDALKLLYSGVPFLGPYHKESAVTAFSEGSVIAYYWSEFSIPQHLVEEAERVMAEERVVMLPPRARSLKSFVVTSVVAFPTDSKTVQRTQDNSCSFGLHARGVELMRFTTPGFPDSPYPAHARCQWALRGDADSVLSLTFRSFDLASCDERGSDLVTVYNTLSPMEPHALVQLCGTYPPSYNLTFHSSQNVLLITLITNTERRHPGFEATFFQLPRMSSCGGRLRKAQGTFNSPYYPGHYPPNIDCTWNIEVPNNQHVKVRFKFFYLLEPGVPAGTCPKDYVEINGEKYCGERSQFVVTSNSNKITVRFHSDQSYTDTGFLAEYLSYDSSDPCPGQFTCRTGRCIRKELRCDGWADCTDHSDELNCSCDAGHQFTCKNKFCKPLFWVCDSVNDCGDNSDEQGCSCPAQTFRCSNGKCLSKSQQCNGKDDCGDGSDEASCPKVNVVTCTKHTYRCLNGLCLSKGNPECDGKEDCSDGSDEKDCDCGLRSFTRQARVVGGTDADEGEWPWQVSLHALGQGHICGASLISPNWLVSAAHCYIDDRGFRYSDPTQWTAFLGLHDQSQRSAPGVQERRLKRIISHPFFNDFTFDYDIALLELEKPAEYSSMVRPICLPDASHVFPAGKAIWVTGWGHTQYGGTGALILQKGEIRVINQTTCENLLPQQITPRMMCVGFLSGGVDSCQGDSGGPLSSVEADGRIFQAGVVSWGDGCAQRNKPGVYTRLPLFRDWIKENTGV
Experimental: as §1

Ki (Prothrombin) [µM]	Ki [1] [µM]	Compound
25.6	1	CC[C@H](C)[C@@H]1NC(=O)[C@@H]2CCCN2C(=O)[C@@H]2CCCN2C(=O)[C@H]([C@@H](C)CC)NC(=O)[C@H](CO)NC(=O)[C@H](CCCCN)NC(=O)[C@H]([C@@H](C)O)NC(=O)[C@@H]2CSSC[C@H](NC1=O)C(=O)N[C@@H](Cc1ccc(-c3ccccc3)cc1)C(=O)N1CCC[C@H]1C(=O)N[C@@H](CC(=O)O)C(=O)NCC(=O)N[C@@H](CCCN=C(N)N)C(=O)N2 [2-[(1R,4S,7S,13S,19S,22S,25S,28S,31R,34S,40S,43S,49S)-25-(4-aminobutyl)-4,19-bis[(2S)-butan-2-yl]-34-(3-carbamimidamidopropyl)-28-[(1R)-1-hydroxyethyl]-22-(hydroxymethyl)-3,6,12,18,21,24,27,30,33,36,39,42,48,51-tetradecaoxo-49-[(4-phenylphenyl)methyl]-53,54-dithia-2,5,11,17,20,23,26,29,32,35,38,41,47,50-tetradecaazapentacyclo[29.20.4.0^{7,11}.0^{13,17}.0^{43,47}]pentapentacontan-40-yl]acetic acid]
16.3	0.45	CC[C@H](C)[C@@H]1NC(=O)[C@@H]2CCCN2C(=O)[C@@H]2CCCN2C(=O)[C@H]([C@@H](C)CC)NC(=O)[C@H](CO)NC(=O)[C@H](CCCCN)NC(=O)[C@H]([C@@H](C)O)NC(=O)[C@@H]2CSSC[C@H](NC1=O)C(=O)N[C@@H](Cc1ccc3ccccc3c1)C(=O)N1CCC[C@H]1C(=O)N[C@@H](CC(=O)O)C(=O)NCC(=O)N[C@@H](CCCN=C(N)N)C(=O)N2 [2-[(1R,4S,7S,13S,19S,22S,25S,28S,31R,34S,40S,43S,49S)-25-(4-aminobutyl)-4,19-bis[(2S)-butan-2-yl]-34-(3-carbamimidamidopropyl)-28-[(1R)-1-hydroxyethyl]-22-(hydroxymethyl)-49-(naphthalen-2-ylmethyl)-3,6,12,18,21,24,27,30,33,36,39,42,48,51-tetradecaoxo-53,54-dithia-2,5,11,17,20,23,26,29,32,35,38,41,47,50-tetradecaazapentacyclo[29.20.4.0^{7,11}.0^{13,17}.0^{43,47}]pentapentacontan-40-yl]acetic acid]
10	0.16	CC[C@H](C)[C@@H]1NC(=O)[C@@H]2CCCN2C(=O)[C@@H]2CCCN2C(=O)[C@H]([C@@H](C)CC)NC(=O)[C@H](CO)NC(=O)[C@H](CCCCN)NC(=O)[C@H]([C@@H](C)O)NC(=O)[C@@H]2CSCSC[C@H](NC1=O)C(=O)N[C@@H](Cc1ccccc1)C(=O)N1CCC[C@H]1C(=O)N[C@@H](CC(=O)O)C(=O)NCC(=O)N[C@@H](CCCN=C(N)N)C(=O)N2 [2-[(1R,4S,7S,13S,19S,22S,25S,28S,31R,34S,40S,43S,49S)-25-(4-aminobutyl)-49-benzyl-4,19-bis[(2S)-butan-2-yl]-34-(3-carbamimidamidopropyl)-28-[(1R)-1-hydroxyethyl]-22-(hydroxymethyl)-3,6,12,18,21,24,27,30,33,36,39,42,48,51-tetradecaoxo-53,55-dithia-2,5,11,17,20,23,26,29,32,35,38,41,47,50-tetradecaazapentacyclo[29.20.5.0^{7,11}.0^{13,17}.0^{43,47}]hexapentacontan-40-yl]acetic acid]
7.63	0.857	CC[C@H](C)[C@@H]1NC(=O)[C@@H]2CCCN2C(=O)[C@@H]2CCCN2C(=O)[C@H]([C@@H](C)CC)NC(=O)[C@H](CO)NC(=O)[C@H](CCCCN)NC(=O)[C@H]([C@@H](C)O)NC(=O)[C@@H]2CSSC[C@H](NC1=O)C(=O)N[C@@H](Cc1ccccc1)C(=O)N1CCC[C@H]1C(=O)N[C@@H](CC(=O)O)C(=O)NCC(=O)N[C@@H](CCCCN=C(N)N)C(=O)N2 [2-[(1R,4S,7S,13S,19S,22S,25S,28S,31R,34S,40S,43S,49S)-25-(4-aminobutyl)-49-benzyl-4,19-bis[(2S)-butan-2-yl]-34-(4-carbamimidamidobutyl)-28-[(1R)-1-hydroxyethyl]-22-(hydroxymethyl)-3,6,12,18,21,24,27,30,33,36,39,42,48,51-tetradecaoxo-53,54-dithia-2,5,11,17,20,23,26,29,32,35,38,41,47,50-tetradecaazapentacyclo[29.20.4.0^{7,11}.0^{13,17}.0^{43,47}]pentapentacontan-40-yl]acetic acid]
